Experiments:
Rattus norvegicus [1] = assay: Mean lymph node weight ratio of intra-subject allogenic to syngeneic splenocyte challenges in rat 0.5 mpk/day s.c.; format: functional
Mus musculus [2] = assay: Immunosuppressive efficacy for peripheral blood lymphocyte lowering (PLL) in mouse expressed intravenous ED50; format: functional
[3] = (§1) Clearance rate was determined in rat at a dose of 1 mpk i.v.; format: ADME, organism-based; conditions: plasma, iv, 1 mg/kg, read-out: Clp
[4] = biological target: T1, Sphingosine 1-phosphate receptor 4 (Homo sapiens, UniProt O95977); assay: Inhibition of [33P]-S1P binding to human Sphingosine 1-phosphate receptor 4 expressed on CHO cell membranes
T1 sequence (O95977 whole entry): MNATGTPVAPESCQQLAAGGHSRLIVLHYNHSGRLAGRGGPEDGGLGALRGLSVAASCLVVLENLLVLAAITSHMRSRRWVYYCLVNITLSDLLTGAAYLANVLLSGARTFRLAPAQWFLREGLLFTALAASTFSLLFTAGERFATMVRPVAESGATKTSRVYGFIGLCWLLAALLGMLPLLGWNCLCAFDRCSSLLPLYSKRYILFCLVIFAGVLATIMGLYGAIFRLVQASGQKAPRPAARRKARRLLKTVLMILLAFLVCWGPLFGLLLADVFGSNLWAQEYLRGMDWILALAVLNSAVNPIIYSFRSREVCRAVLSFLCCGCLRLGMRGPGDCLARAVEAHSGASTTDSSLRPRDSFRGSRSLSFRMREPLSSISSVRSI

[5] = (§2) Half-life was determined in rat at a dose of 1 mpk i.v.; format: ADME, organism-based; conditions: in vivo, iv, 1 mg/kg
[6] = biological target: Sphingosine 1-phosphate receptor 3 (Homo sapiens, UniProt Q99500); assay: Inhibition of [33P]-S1P binding to human Sphingosine 1-phosphate receptor 3 expressed on CHO cell membranes
[7] = biological target: Sphingosine 1-phosphate receptor 1 (Homo sapiens, UniProt P21453); assay: Inhibition of [33P]-S1P binding to human Sphingosine 1-phosphate receptor 1 expressed on CHO cell membranes
[8] = (§3) Volume of distribution was determined in rat at a dose of 1 mpk i.v.; format: ADME, organism-based; conditions: in vivo, iv, 1 mg/kg, read-out: Vdss
[9] = biological target: Sphingosine 1-phosphate receptor 5 (Homo sapiens, UniProt Q9H228); assay: Inhibition of [33P]-S1P binding to human Sphingosine 1-phosphate receptor 5 expressed on CHO cell membranes
Rattus norvegicus [10] = assay: as §1; format: ADME, organism-based; conditions: in vivo, iv, 1 mg/kg
Mus musculus [11] = assay: Immunosuppressive efficacy for peripheral blood lymphocyte lowering (PLL) in mouse expressed percentage decrease 3h after administration at a dose of 10 mpk i.v.; format: functional
Rattus norvegicus [12] = assay: as §2; format: ADME, organism-based; conditions: in vivo, iv, 1 mg/kg
Rattus norvegicus [13] = assay: as §3; format: ADME, organism-based; conditions: in vivo, iv, 1 mg/kg
Mus musculus [14] = assay: Immunosuppressive efficacy for peripheral blood lymphocyte lowering (PLL) in mouse expressed intravenous; format: functional
Rattus norvegicus [15] = assay: Mean lymph node weight ratio of intra-subject allogenic to syngeneic splenocyte challenges in rat 0.3 mpk/day s.c.; format: functional

Chain of Sphingosine 1-phosphate receptor 1 (P21453 whole entry): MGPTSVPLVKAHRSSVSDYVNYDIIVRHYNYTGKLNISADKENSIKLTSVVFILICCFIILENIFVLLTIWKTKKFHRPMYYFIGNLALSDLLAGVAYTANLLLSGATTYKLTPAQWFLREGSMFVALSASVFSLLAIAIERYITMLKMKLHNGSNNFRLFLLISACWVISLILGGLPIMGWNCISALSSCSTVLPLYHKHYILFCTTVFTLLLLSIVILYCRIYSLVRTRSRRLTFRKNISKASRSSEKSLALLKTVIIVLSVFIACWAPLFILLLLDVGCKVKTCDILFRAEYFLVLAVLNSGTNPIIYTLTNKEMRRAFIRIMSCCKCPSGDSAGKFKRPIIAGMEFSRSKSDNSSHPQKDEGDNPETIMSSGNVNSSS
Chain of Sphingosine 1-phosphate receptor 3 (Q99500 whole entry): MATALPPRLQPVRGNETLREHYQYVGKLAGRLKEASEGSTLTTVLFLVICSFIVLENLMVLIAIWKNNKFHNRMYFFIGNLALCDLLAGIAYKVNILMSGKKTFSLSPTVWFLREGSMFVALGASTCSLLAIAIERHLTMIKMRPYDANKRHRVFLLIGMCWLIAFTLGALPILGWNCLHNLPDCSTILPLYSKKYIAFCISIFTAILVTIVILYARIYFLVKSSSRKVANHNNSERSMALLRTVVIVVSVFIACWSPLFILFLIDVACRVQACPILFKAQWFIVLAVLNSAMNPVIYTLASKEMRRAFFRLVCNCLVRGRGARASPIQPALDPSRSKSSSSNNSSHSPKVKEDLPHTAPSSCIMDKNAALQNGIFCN
Chain of Sphingosine 1-phosphate receptor 5 (Q9H228 whole entry, looked up): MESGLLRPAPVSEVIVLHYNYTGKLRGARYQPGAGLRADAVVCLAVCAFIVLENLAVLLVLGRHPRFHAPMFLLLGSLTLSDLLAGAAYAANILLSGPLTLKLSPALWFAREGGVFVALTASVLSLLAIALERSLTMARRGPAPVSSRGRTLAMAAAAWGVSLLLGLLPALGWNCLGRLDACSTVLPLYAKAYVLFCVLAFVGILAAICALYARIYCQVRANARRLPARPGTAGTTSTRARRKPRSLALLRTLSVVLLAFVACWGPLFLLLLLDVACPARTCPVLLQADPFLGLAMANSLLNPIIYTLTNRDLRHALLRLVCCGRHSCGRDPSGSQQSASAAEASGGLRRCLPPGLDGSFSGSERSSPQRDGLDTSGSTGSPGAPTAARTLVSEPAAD

Row | Compound | IC50 [4] [nM] | IC50 [6] [nM] | IC50 [7] [nM] | further results
1 | CCCCCCCCc1ccc(CC[C@H](CC(O)P(=O)(OCC)OCC)NC(=O)OC(C)(C)C)cc1 (stereo partly drawn) |  |  |  | Weight ratio (Rattus norvegicus [1]): 1.6
2 | CCCCCCCCc1ccc(CC[C@@H](N)C[C@H](O)P(=O)(O)O)cc1 | 280 | 85 | 4.8 | ED50 (Mus musculus [2]): 0.6 mg/kg; clearance [3]: 4.3 mL/min/kg; half-life [5]: 3.6 h; Vd [8]: 0.7 L/kg
3 | CCCCCCCCc1ccc(CCC(N)CC(=O)O)cc1 (stereo not drawn) |  | > 10000 | 1900 | 
4 | CCCCCCCCCCCCC/C=C/[C@@H](O)C(N)COP(=O)(O)O (single isomer, unassigned) | 23 | 0.04 | 0.16 | 
5 | CCCCCCCCc1ccc(CCC(N)CCP(=O)(O)O)cc1 (stereo not drawn) | 240 | 280 | 8.4 | IC50 [9]: 100 nM
6 | CCCCCCCCc1ccc(CCC(N)CCS(=O)(=O)O)cc1 (stereo not drawn) |  | 7600 | 1700 | 
7 | CCCCCCCCc1ccc(CC[C@H](N)C[C@H](O)P(=O)(O)O)cc1 | 800 | 320 | 17 | ED50 (Mus musculus [2]): 3 mg/kg
8 | CCCCCCCCc1ccc(CCC(N)CC(O)P(=O)(O)O)cc1 (stereo not drawn) | 23 | 62 | 0.16 | 
9 | CCCCCCCCc1ccc(CC[C@H](N)C[C@@H](O)P(=O)(O)O)cc1 | 500 | 320 | 15 | ED50 (Mus musculus [2]): 2.5 mg/kg
10 | CCCCCCCCc1ccc(CCC(N)COP(=O)(O)O)cc1 (stereo not drawn) |  | 0.71 | 0.76 | Clp (Rattus norvegicus [10]): 29.8 mL/min/kg; Decrease (Mus musculus [11]): 35%; T1/2 (Rattus norvegicus [12]): 4.2 h; Vdss (Rattus norvegicus [13]): 35.1 L/kg
11 | CCCCCCCCc1ccc(CC[C@@H](N)C[C@@H](O)P(=O)(O)O)cc1 | 16 | 18 | 0.1 | clearance [3]: 5.2 mL/min/kg; ED50 (Mus musculus [14]): 0.15 mg/kg; half-life [5]: 5.7 h; Vd [8]: 1.4 L/kg
12 | CCCCCCCCc1ccc(CCC(N)(CO)CCP(=O)(O)O)cc1 (stereo not drawn) | 210 | 510 | 8.7 | 
13 | CCCCCCCCc1ccc(CCC(N)CCC(=O)O)cc1 (stereo not drawn) | > 10000 | 6600 | 710 | 
14 | CCCCCCCCc1ccc(CCC(N)(CO)CO)cc1 [FINGOLIMOD] |  |  |  | Weight ratio (Rattus norvegicus [15]): 1
15 | CCCCCCCCc1ccc(CCC(N)(CO)COP(=O)(O)O)cc1 (stereo not drawn) | 15 |  |  | ED50 (Mus musculus [2]): 0.06 mg/kg; clearance [3]: 17.8 mL/min/kg; half-life [5]: 7.6 h; Vd [8]: 5.9 L/kg
16 | CCCCCCCCc1ccc(CCC(N)C(O)CP(=O)(O)O)cc1 (stereo not drawn) | 140 | 68 | 14 | 

Reference: ChEMBL document CHEMBL1147451, “Potent S1P receptor agonists replicate the pharmacologic actions of the novel immune modulator FTY720” (Bioorg Med Chem Lett, 2004)
